The subject of one data set is MPF activity. The experiment in a line: Histone H1 kinase assay on single oocytes/eggs (MPF activity). The following applies: TPEN 10 h, then TPEN + 20 μM MG132 6 h. Type of data set: cell-based, mouse. Here is the method:
Histone H1 and myelin basic protein (MBP) dual kinase assays were performed as previously described (Svoboda et al., 2000). Dried gels were exposed to Kodak BIOMAX MR films for 12 to 72 hours at −80° C. using Kodak intensifying screens; films were developed, scanned, and analyzed using ImageJ software. Assays were performed on single oocytes, and densitometric analysis is expressed relative to levels in control eggs.

The next data set has as its system CCNB1. The experiment in a line: Western blot for CCNB1 in oocytes. The class given is cell-based, mouse. The conditions noted are these: TPEN 10 h, then TPEN + 20 μM MG132 6 h. Here is the method:
Western blotting was performed essentially as previously described (Bernhardt et al., 2010). Briefly, 15 to 50 cumulus-denuded oocytes were transferred in a minimal amount of medium to microcentrifuge tubes and immediately lysed in 8 μL of 1x SDSPAGE Sample Buffer (Laemmli, 1970). SDS-PAGE gels were run using the Invitrogen NuPAGE system and transferred to Immobilon-P PVDF membranes (Millipore, Billerica, MA). Blocking and antibody incubations were in 2% w/v ECL Advanced Blocking Reagent (Amersham) in TBS-T (20mM Tris, pH7.4, 137mM NaC1, 0.1% Tween20 v/v). Anti-CCNB1antibody was diluted 1:500, anti-FBXO43 was used at 1:1000 dilution, and anti-tubulin antibody was used at 1:10,000. HRP-conjugated secondary antibodies were diluted 1:10,000. Detection was performed using Amersham ECL Advanced detection reagent. BIOMAX MR films (Kodak, Rochester, NY) were exposed and developed, or an Alpha-Innotech (San Learndo, CA) MultiImage II system was used.
On the technique in general: A western blot detects proteins with antibodies after separation by electrophoresis.

The subject of data set [1] is zinc-insufficient oocytes. The experiment in a line: Spindle phenotype scoring after IVM in TPEN with proteasome inhibitor MG132 added after 10 h. The class given is cell-based, mouse. The conditions noted are these: TPEN 10 h, then TPEN + 20 μM MG132 6 h. How it is done:
For IVM studies, immature female CD1 mice (17 to 21 day old) were injected with 5IU equine chorionic gonadotropin (eCG) (Calbiochem, La Jolla, CA) in 100 μL sterile phosphate-buffered saline (PBS), intraperitoneally. After 44 to 48 hours, mice were anesthetized using isoflurane and euthanized by cervical dislocation. Dissected ovaries were placed in Leibovitz L-15 medium containing 1% FBS (L-15/FBS) and 0.2mM 3-isobutyl-1-methylxanthine (IBMX), and large antral follicles were punctured using 28 gauge needles to release cumulus oocyte complexes (COCs). COCs were washed through several drops of culture medium consisting of Minimum Essential Medium (MEM)-alpha with GLUTAMAX supplemented with 10% FBS, 1.5IU/mL human chorionic gonadotropin (hCG), and 5ng/mL epidermal growth factor and placed in culture medium with or without 10 μM N,N,N′,N′-tetrakis(2-pyridylmethyl) ethylenediamine (TPEN). In some experiments Z-Leu-Leu-Leu-al (MG132) was added to culture medium at 20 μM. COCs were cultured in drops of pre-equilibrated medium covered with embryo quality mineral oil at 37° C. in 5% CO2 with a humid environment. Ovulated MII eggs were collected from 4 to 6 week old mice primed with 5IU PMSG followed 48 h later by 5IU hCG. Oviducts were dissected into L-15/FBS, and eggs were removed and treated with 0.03% (w/v) hyaluronidase to remove cumulus cells. Eggs were washed and cultured in potassium simplex optimized medium (KSOM) (Millipore, Billerica, MA) covered with embryo quality mineral oil at 37° C. in 5% CO2.
Oocytes were denuded of cumulus cells and fixed in a microtubule stabilizing buffer (Ibanez et al., 2005) containing 2% formaldehyde and 1% Triton X-100 for 30 min at 37° C. Oocytes were washed and blocked in PBS containing 0.1M glycine, 3mg/mL BSA, 0.01% Tween 20, and 0.01% sodium azide for at least 1 h and were stored in blocking solution at 4° C. for up to 2 weeks. Oocytes were incubated with anti-tubulin antibody (1:100) for 1 h at 37C. followed by three washes in blocking solution. They were then incubated for 1 h in AlexaFluor-488 conjugated anti-mouse secondary antibody (5μg/mL) and rhodamine-phalloidin (2U/mL), washed three additional times, and mounted in VECTASHIELD with DAPI. Microscopy was performed using a Leica SP5 inverted laser-scanning confocal microscope with a 63x oil immersion objective (Leica Microsystems, Heidelberg, Germany). Images were processed using LAS AF software (Leica Microsystems).
It has been previously shown that zinc-insufficient oocytes fail to increase MPF activity following the first meiotic division and have low CCNB1 protein levels (Bernhardt et al., 2010). In order to determine whether this decrease in CCNB1 is the major cause of the observed meiotic arrest phenotype, it was tested whether increasing CCNB1 would be sufficient to rescue MII entry in zinc-insufficient oocytes by inhibiting the proteasome at the end of the MI-MII transition, thereby halting CCNB1 degradation. Experimental oocytes were cultured for 10 hours in TPEN-containing medium and were then transferred into medium containing TPEN as well as the proteasome inhibitor Z-Leu-Leu-Leu-al (MG132) at 20 μM concentration. MG132 was added after first polar body extrusion, because earlier addition would result in MI arrest due to failure to degrade APC/C targets that prevent cell division. Oocytes were cultured for an additional 6 h in the presence of MG132 to allow time for CCNB1 reaccumulation, for a total 16 h IVM culture period. Proteasome inhibition led to a partial rescue of the zinc insufficiency phenotype. 69% of treated oocytes formed spindle-like structures, and none were in telophase I arrest, despite being cultured in the presence of TPEN for the entire culture period (FIG. 2, A; Table 2).
A majority of zinc-insufficient oocytes treated with MG132 following the first meiotic division transition progress beyond telophase-I arrest and form MII spindle-like structures. […]

The subject of another data set is MII eggs. The data set can be described thus: Activation of in vivo ovulated MII eggs (SrCl2, TPEN, ZnPT pre-treatment). Here is the method:
Ovulated MII eggs were collected as described above. Eggs were transferred to KSOM medium with or without 10 μM ZnPT (1:1000 dilution of a 10 mM stock in DMSO) for exactly 5 minutes. Eggs were then washed in KSOM and allowed to recover for 10-15 minutes prior to activation. For SrCl2 activation, eggs were transferred to drops of calcium-free KSOM containing 10 mM SrCl2 for 2 hours, followed by 4 additional hours of culture in calcium-containing KSOM without SrCl2. TPEN activation was performed as previously described (Kim et al., 2011); eggs were cultured for 6 hours in KSOM containing 10 μM TPEN. Unactivated controls were cultured in KSOM for the same 6 hour time period to assess levels of spontaneous parthenogenesis.
MII eggs were treated with the ionophore zinc pyrithione (ZnPT) for 5 minutes to increase intracellular zinc. Following a 10-15 minute recovery period, eggs were then treated with activating agents SrCl2 or TPEN.

Entries after “also recorded” stand apart in the source; their conditions may differ. Peptide text beside a SMILES is read from it. * marks the point of attachment. Cbz = O=C(OCc1ccccc1)*

As to `CC(C)C[C@@H](C=O)NC(=O)[C@H](CC(C)C)NC(=O)[C@H](CC(C)C)NC(=O)OCc1ccccc1` [MG132, Z-Leu-Leu-Leu-al] (Cbz-Leu-Leu-Leu-aldehyde), the “MPF activity (histone H1 kinase) compared to oocytes cultured with TPEN alone” value in the data set with MPF activity was “increased”. In addition, the CCNB1 protein levels entry with CCNB1 is “only partially restores; also recorded: only slightly increased”. In data set [1], the “oocytes with some degree of MII spindle formation (spindle-like structures)” value was 69%. Also, in data set [1] (n=26), the “MII (aligned metaphase plate)” value turned out to be 19%, the other spindle phenotype stood at 15%, the “persisting midbody or chromatin mass” value is reported as 15% and the “spindle with chr. scattered along length” value is listed as 19%. For the same molecule, in data set [1] (n=26), the “spindle with ≦3 chr. out of place” value is 31%.

Consider `[Cl-].[Cl-].[Sr+2]` [SrCl2], for which the “egg activation (second polar body and PN or PN-like structures)” value in the data set on MII eggs (control MII eggs, by 6 hours post activation, 10 mM SrCl2 2 h or 10 μM TPEN 6 h) is “activated normally”.

Take zinc pyrithione [ZnPT]: the “MII spindle organisation after ZnPT” value in the data set on MII eggs (10 μM ZnPT 5 minutes, unactivated eggs and SrCl2-treated eggs, 6 hours of culture) is reported as “caused spindle abnormalities”. For the same molecule, in the data set on MII eggs (MII eggs, 10 μM ZnPT 5 minutes, then 10 μM TPEN 6 h), the “egg activation by TPEN after ZnPT pre-treatment” value was “formed second polar bodies and PN-like structures”. Further, the “egg activation by SrCl2 after ZnPT pre-treatment” value in the data set on MII eggs (MII eggs, 10 μM ZnPT 5 minutes, then 10 mM SrCl2) is reported as “did not show signs of activation”.

The values are drawn from patent publication US8772029B2, “Modulation of oocyte meiotic progression and oocyte activation” (Northwestern University, priority 2011, dated 2014).
